In patent publication US20230365563A1, “QUINAZOLINE COMPOUND AND APPLICATION THEREOF” (SHANGHAI PHARMACEUTICALS HOLDING CO., LTD., priority 2020, published 2023):
Where “and” joins values, the source holds several entries; their conditions need not be identical. Identical values can stand only once. Counter-ions that a name gives are not always drawn.

Legend:
KRAS_G12D and cRAF = target: T1, KRAS_G12D and cRAF (Homo sapiens, UniProt P01116, G12D); test: Inhibition of KRAS_G12D/cRAF binding (Cisbio binding kit, 665/615 ratio), Effect Embodiment B; conditions: read-out: GTP-KRAS-G12D:CRAF IC50
T1 construct: purchased
Outline: (§1)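 Compounds are tested over eleven threefold dilution steps in duplicate, with final DMSO at 1%.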

KRAS_WT and SOS1 = target: T2, KRAS_WT and SOS1 (Homo sapiens, UniProt P01116); test: Inhibition of KRAS_WT/SOS1 binding (Cisbio binding kit, 665/615 ratio), Effect Embodiment C; conditions: read-out: GTP-KRAS-WT:SOS1 IC50
T2 construct: purchased
Outline: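 Compounds tested as 3-fold, 11-point dilutions in duplicate at 1% DMSO final against the KRAS_WT/SOS1 binding system. IC50 derived by nonlinear regression fit.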

KRAS-G12D and SOS1 = target: T3, KRAS-G12D and SOS1 (Homo sapiens, UniProt P01116, G12D); test: Inhibition of KRAS-G12D/SOS1 binding (Cisbio binding kit, 665/615 ratio), Effect Embodiment A; conditions: read-out: GTP-KRAS-G12D:SOS1 IC50
T3 construct: purchased
Outline: as §1

T2 sequence (P01116 1-188 isoform P01116-2): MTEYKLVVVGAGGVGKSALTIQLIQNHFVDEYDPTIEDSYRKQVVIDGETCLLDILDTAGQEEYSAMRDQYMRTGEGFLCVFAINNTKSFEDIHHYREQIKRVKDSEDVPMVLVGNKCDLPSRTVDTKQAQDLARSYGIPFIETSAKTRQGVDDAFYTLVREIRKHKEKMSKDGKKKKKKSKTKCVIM
T3 sequence (P01116 1-188 isoform P01116-2 G12D): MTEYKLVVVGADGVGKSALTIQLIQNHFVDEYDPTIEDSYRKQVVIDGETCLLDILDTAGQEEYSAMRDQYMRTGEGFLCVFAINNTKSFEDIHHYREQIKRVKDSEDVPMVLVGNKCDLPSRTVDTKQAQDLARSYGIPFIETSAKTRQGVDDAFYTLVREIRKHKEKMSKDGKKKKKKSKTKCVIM
T1 sequence (P01116 1-188 isoform P01116-2 G12D): as above

IC50 (KRAS_G12D and cRAF) | IC50 (KRAS_WT and SOS1) | IC50 (KRAS-G12D and SOS1) | SMILES
78.2 nM | 1100 nM | 15.1 nM | CN1CC(COc2nc(N3CC4CCC(C3)N4)c3cc(Cl)c(-c4cc(O)cc5ccccc45)c(F)c3n2)C1 (single isomer, unassigned) [Compound 91, 4-((S or R)-4-((1R,5S)-3,8-diazabicyclo[3.2.1]octan-3-yl)-6-chloro-8-fluoro-2-((1-methylazetidin-3-yl)methoxy)quinazolin-7-yl)naphthalen-2-ol tritrifluoroacetate]
100 nM | 4530 nM | 37.2 nM | Oc1cc(-c2c(Cl)cc3c(N4CC5CCC(C4)N5)nc(OCCN4CCCCC4)nc3c2F)c2ccccc2c1 (single isomer, unassigned) [Compound 114, 4-((S or R)-4-((1R,5S)-3,8-diazabicyclo[3.2.1]octan-3-yl)-6-chloro-8-fluoro-2-(2-(piperidin-1-yl)ethoxy)quinazolin-7-yl)naphthalen-2-ol dihydrochloride]
296 nM | > 10000 nM | 64.8 nM | CO[C@@H](COc1nc(N2CC3CCC(C2)N3)c2cc(Cl)c(-c3cc(O)cc4ccccc34)c(F)c2n1)CN1C2CCCC1CC2 (single isomer, unassigned) [Compound 257, (4S or 4R)-4-(2-((2R)-3-(8-azabicyclo[3.2.1]octan-8-yl)-2-methoxypropoxy)-4-((1R,5S)-3,8-diazabicyclo[3.2.1]octan-3-yl)-6-chloro-8-fluoroquinazolin-7-yl)naphthalen-2-ol formate]
339 nM | 1760 nM | 67.9 nM | C[C@@H]1CCCCN1CCOc1nc(N2CC3CCC(C2)N3)c2cc(Cl)c(-c3cc(O)cc4ccccc34)c(F)c2n1 (single isomer, unassigned) [Compound 269, (S or R)-4-(4-((1R,5S)-3,8-diazacyclo[3.2.1]octan-3-yl)-6-chloro-8-fluoro-2-(2-((R)-2-methylpiperidin-1-yl)ethoxy)quinazolin-7-yl)naphthalen-2-ol formate]
96.9 nM | 854 nM | 39.6 nM | Cc1cc2c(N3CC4CCC(C3)N4)nc(OCCCN(C)C)nc2c(F)c1-c1cc(O)cc2ccccc12 (single isomer, unassigned) [Compound 149a, 4-((R or S)-4-((1R,5S)-3,8-diazabicyclo[3.2.1]octan-3-yl)-2-(3-(dimethylamino)propoxy)-8-fluoro-6-methylquinazolin-7-yl)naphthalen-2-ol hydrochloride]
251 nM | 6390 nM | 87.6 nM | CN(C)C12CC(COc3nc(N4CC5CCC(C4)N5)c4cc(Cl)c(-c5cc(O)cc6ccccc56)c(F)c4n3)(C1)C2 (single isomer, unassigned) [Compound 127, 4-((S or R)-4-((1R,5S)-3,8-diazabicyclo[3.2.1]octan-3-yl)-6-chloro-2-((3-(dimethylamino)bicyclo[1.1.1]pentan-1-yl)methoxy)-8-fluoroquinazolin-7-yl)naphthalen-2-ol hydrochloride]
589 nM | 9750 nM | 248 nM | CN(C)C1CN(c2nc(N3C[C@@H]4C[C@H]3CN4)c3cc(Cl)c(-c4cc(O)cc5ccccc45)c(F)c3n2)C1 (single isomer, unassigned) [Compound 2a, (R or S)-4-(4-((1S,4S)-2,5-diazabicyclo [2.2.1]heptan-2-yl)-6-chloro-2-(3-(dimethylamino)azetidin-1-yl)-8-fluoro-quinazolin-7-yl)naphthalen-2-ol]
18.3 nM | 496 nM | 15.3 nM | C[C@@H](COc1nc(N2CC3CCC(C2)N3)c2cc(Cl)c(-c3cc(O)cc4ccccc34)c(F)c2n1)CN1CCOC[C@H]1C (single isomer, unassigned) [Compound 239, 4-((S or R)-4-((1R,5S)-3,8-diazacyclo[3.2.1]octyl-3-yl)-6-chloro-8-fluoro-2-((R)-2-methyl-3-((R)-3-methylmorpholinyl)propoxy)quinazolin-7-yl)naphthalen-2-ol formate]
7.23 nM | 196 nM | 11.6 nM | C[C@@H]1CN(CC2(COc3nc(N4CC5CCC(C4)N5)c4cc(Cl)c(-c5cc(O)cc6ccccc56)c(F)c4n3)CC2)C[C@H](C)O1 (single isomer, unassigned) [Compound 207, 4-((S or R)-4-((1R,5S)-3,8-diazabicyclo[3.2.1]octan-3-yl)-6-chloro-2-((2S,6R)-2,6-dimethylmorpholinyl)methyl)cyclopropyl)methoxy)-8-fluoroquinazolin-7-yl)naphthalenol formate]
646 nM | 16700 nM | 214 nM | CN(C)CCCCCCOc1nc(N2C[C@H]3CC[C@@H](C2)N3)c2cc(Cl)c(-c3cc(O)cc4ccccc34)c(F)c2n1 (single isomer, unassigned) [Compound 68, (S or R)-4-(4-((1R,5S)-3,8-diazabicyclo[3.2.1]octan-3-yl)-6-chloro-2-((6-(dimethylamino)hexyl)oxy)-8-fluoroquinazolin-7-yl)naphthalen-2-ol dihydrochloride]
489 nM | 1980 nM | 63 nM | Oc1cc(-c2cc(F)c3c(N4CC5CCC(C4)N5)nc(OCCCN4C5CCC4COC5)nc3c2F)c2ccccc2c1 [Compound 253, 4-(2-(3-(3-Oxa-8-azabicyclo[3.2.1]octan-8-yl)propoxy)-4-((1R,5S)-3,8-diazabicyclo[3.2.1]octan-3-yl)-5,8-difluoroquinazolin-7-yl)naphthalen-2-ol formate]
47.7 nM | 765 nM | 16.7 nM and 21.2 nM | CN(C)CCCOc1nc(N2C[C@H]3CC[C@@H](C2)N3)c2ccc(-c3cc(O)cc4ccccc34)c(F)c2n1 [Compound 143, 4-(4-((1R,5S)-3,8-diazabicyclo[3.2.1]octan-3-yl)-2-(3-(dimethylamino)propoxy)-8-fluoroquinazolin-7-yl)naphthalen-2-ol]
49.4 nM | 2020 nM | 51.8 nM | C[C@@H](COc1nc(N2CC3CCC(C2)N3)c2cc(Cl)c(-c3cc(O)cc4ccccc34)c(F)c2n1)CN1C[C@@H](C)O[C@H](C)C1 (single isomer, unassigned) [Compound 216, 4-((S or R)-4-((1R,5S)-3,8-diazabicyclo[3.2.1]octan-3-yl)-6-chloro-2-((R)-3-((2R,6R)-2,6-dimethylmorpholinyl)-2-methylpropoxy)-8-fluoroquinazolin-7-yl)naphthalen-ol diformate]

SMILES | IC50 (KRAS_G12D and cRAF) | IC50 (KRAS_WT and SOS1) | IC50 (KRAS-G12D and SOS1)
CN(C)[C@H]1C[C@@H](Oc2nc(N3CC4CCC(C3)N4)c3cc(Cl)c(-c4cc(O)cc5ccccc45)c(F)c3n2)C1 (single isomer, unassigned) [Compound 69a, 4-((S or R)-4-((1R,5S)-3,8-diazabicyclo[3.2.1]octan-3-yl)-6-chloro-2-((1S,3R)-3-(dimethylamino)cyclobutoxy)-8-fluoroquinazolin-7-yl)naphthalen-2-ol dihydrochloride] | 1850 nM | > 100000 nM | 225 nM
